Laboratory results: publication PMC4210175 (Journal of Chemical Information and Modeling, 2014)

Target: T1, Mycobacterium thermoresistibile MycP1 (Mycolicibacterium thermoresistibile, UniProt G7CDQ2)
T1 sequence (G7CDQ2 19-443): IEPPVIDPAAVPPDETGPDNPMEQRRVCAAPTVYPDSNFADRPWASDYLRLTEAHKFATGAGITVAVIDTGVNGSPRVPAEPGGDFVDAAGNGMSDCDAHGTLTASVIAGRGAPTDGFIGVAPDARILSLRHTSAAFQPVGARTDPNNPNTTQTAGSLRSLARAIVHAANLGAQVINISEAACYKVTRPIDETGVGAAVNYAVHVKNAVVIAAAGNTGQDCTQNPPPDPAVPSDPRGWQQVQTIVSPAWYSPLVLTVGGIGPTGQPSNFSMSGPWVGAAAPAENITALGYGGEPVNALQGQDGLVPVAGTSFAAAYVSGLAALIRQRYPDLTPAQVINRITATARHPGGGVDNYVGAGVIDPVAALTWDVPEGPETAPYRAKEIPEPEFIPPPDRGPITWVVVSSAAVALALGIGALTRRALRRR
Assay: In vitro quenched fluorescent peptide assay of MycP1 inhibitors
Assay type: biochemical
Details: for inhibition at 150 µM: read-out: % inhibition at 150 μM

SMILES: N=C(N)c1ccc(/C=C/c2ccc(C(=N)N)cc2O)cc1 [compound 11, Hydroxystilbamidine]
- IC50: 85.6 µM
- inhibition at 150 µM: 79.1%

SMILES: N=C(N)c1ccc(/N=N/Nc2ccc(C(=N)N)cc2)cc1 [compound 12, Diminazene]
- inhibition at 150 µM: 58%

SMILES: CC(=O)Nc1ccc(/C=N/NC(N)=S)cc1 [compound 13, Thiacetazone]
- inhibition at 150 µM: 80.1%
